From US4363805A, “Aminodesoxy-1.4;3.6-dianhydrohexitol nitrates and pharmaceutical composition” (Firma Willmar Schwabe, priority 1980, dated 1982)

Legend:
[1] = Acute toxicity, intravenous, mice; type: in vivo; conditions: mouse, in vivo; intravenous, within 24 hours; read-out: Evaluated LD50-range
[2] = system: female NMRI-albino mice; experiment: Acute toxicity, intravenous, mice; type: in vivo; conditions: within 24 hours
[3] = system: isolated guinea pig hearts; experiment: Experiments on Langendorff hearts (coronary flowthrough, inotropism, frequency); conditions: Cavia porcellus, read-out: flowthrough, percentage change with regard to the initial value
Procedure: After reaching the stationary state in the 30th minute, the hearts were each perfused with 50 ml. tyrode solution with a content of test substance of, in each case, 25 μg./ml. Each test substance was tested on 3-6 hearts.
In each case, there was measured the inotropism, the flowthrough and the frequency, whereby the values given in Table I are average values of the percentage changes in comparison with the initial values.

[4] = system: narcotised guinea pigs; experiment: Blood pressure experiments on guinea pigs, i.v.; type: in vivo, guinea pig; conditions: for blood pressure before: before administration
[5] = system: mongrel cats; experiment: Inotropic and heart-circulatory effectiveness on narcotised cats, intravenous; type: in vivo, cat; conditions: 6 animals
[6] = 0.25 mg/kg i.v., before administration

With O=[N+]([O-])O[C@H]1CO[C@H]2[C@@H]1OC[C@@H]2N1CCCCC1 [15 b] the LD50 at 24 h [1] was 50 to 100 mg/kg, the Frequency of death ([2]; 50 mg/kg i.v.) was 0/3 and the Frequency of death ([2]; 100 mg/kg i.v.) was 2/3. For the same molecule, the Frequency of death ([2]; 200 mg/kg i.v.) was 6/6, the activation at 25 µg/mL [3] was 34% and the blood pressure after ([4]; 0.25 mg/kg i.v.) was 63.00 ± 1.83 mm.Hg. For the same molecule, the “blood pressure Δ” value ([4]; 0.25 mg/kg i.v.) was -9.00 mm.Hg, the blood pressure before ([4]; 0.25 mg/kg i.v.) was 72.00 ± 2.12 mm.Hg and the blood pressure after ([4]; 1.00 mg/kg i.v.) was 53.50 ± 1.71 mm.Hg. For the same molecule, the “blood pressure Δ” value ([4]; 1.00 mg/kg i.v.) was -17.75 mm.Hg, the blood pressure after ([4]; 2.50 mg/kg i.v.) was 49.00 ± 2.48 mm.Hg and the “blood pressure Δ” value ([4]; 2.50 mg/kg i.v.) was -23.00 mm.Hg.
With Cc1cccc(OCC(O)CN[C@H]2CO[C@H]3[C@@H]2OC[C@@H]3O[N+](=O)[O-])c1 (stereo partly drawn) [Example 51, 5-[2-Hydroxy-3-(3-tolyloxy)-propylamino]-5-desoxy-1.4;3.6-dianhydro-L-iditol 2-nitrate] the LD50 at 24 h [1] was 50 to 100 mg/kg, the Frequency of death ([2]; 50 mg/kg i.v.) was 0/3 and the Frequency of death ([2]; 100 mg/kg i.v.) was 3/3. The Frequency of death ([2]; 200 mg/kg i.v.) was 6/6, the activation at 25 µg/mL [3] was 92.4% and the blood pressure after ([4]; 0.25 mg/kg i.v.) was 63.00 ± 2.35 mm.Hg. For the same molecule, the “blood pressure Δ” value ([4]; 0.25 mg/kg i.v.) was -3.75 mm.Hg, the blood pressure before ([4]; 0.25 mg/kg i.v.) was 66.75 ± 2.49 mm.Hg and the blood pressure after ([4]; 1.00 mg/kg i.v.) was 55.75 ± 2.36 mm.Hg. The “blood pressure Δ” value ([4]; 1.00 mg/kg i.v.) was -10.25 mm.Hg, the blood pressure after ([4]; 2.50 mg/kg i.v.) was 42.25 ± 1.32 mm.Hg and the “blood pressure Δ” value ([4]; 2.50 mg/kg i.v.) was -23.50 mm.Hg.
With O=[N+]([O-])O[C@H]1CO[C@H]2[C@@H]1OC[C@@H]2NCCCc1ccccc1 [Example 28, 5-(3-Phenylpropylamino)-5-desoxy-1.4;3.6-dianhydro-L-iditol 2-nitrate] the LD50 at 24 h [1] was 50 to 100 mg/kg, the Frequency of death ([2]; 50 mg/kg i.v.) was 0/10 and the Frequency of death ([2]; 100 mg/kg i.v.) was 5/6. The Frequency of death ([2]; 200 mg/kg i.v.) was 3/3, the activation at 25 µg/mL [3] was 68.1% and the blood pressure before [5, 6] was 101.3 mm.Hg. The “dp/dt (inotropism) before” value [5, 6] was 7667 mm.Hg/sec, the heart frequency before [5, 6] was 225.0 min⁻¹ and the “blood pressure WD” value ([5]; 0.25 mg/kg i.v.) was 3.1 min. The blood pressure after ([5]; 0.25 mg/kg i.v.) was 81.8 mm.Hg, the “blood pressure Δ” value ([5]; 0.25 mg/kg i.v.) was -19.5 mm.Hg and the “dp/dt (inotropism) after” value ([5]; 0.25 mg/kg i.v.) was 7400 mm.Hg/sec. The “dp/dt (inotropism) Δ” value ([5]; 0.25 mg/kg i.v.) was -267 mm.Hg/sec, the “dp/dt WD” value ([5]; 0.25 mg/kg i.v.) was 2.7 min and the heart frequency after ([5]; 0.25 mg/kg i.v.) was 223.3 min⁻¹. For the same molecule, the “heart frequency Δ” value ([5]; 0.25 mg/kg i.v.) was -1.7 min⁻¹, the “blood pressure WD” value ([5]; 0.50 mg/kg i.v.) was 5.8 min and the blood pressure after ([5]; 0.50 mg/kg i.v.) was 79.0 mm.Hg. For the same molecule, the “blood pressure Δ” value ([5]; 0.50 mg/kg i.v.) was -25.9 mm.Hg, the “dp/dt (inotropism) after” value ([5]; 0.50 mg/kg i.v.) was 6567 mm.Hg/sec and the “dp/dt (inotropism) Δ” value ([5]; 0.50 mg/kg i.v.) was -1000 mm.Hg/sec. The “dp/dt WD” value ([5]; 0.50 mg/kg i.v.) was 10.7 min, the heart frequency after ([5]; 0.50 mg/kg i.v.) was 226.3 min⁻¹ and the “heart frequency Δ” value ([5]; 0.50 mg/kg i.v.) was -1.7 min⁻¹. The “blood pressure WD” value ([5]; 1.00 mg/kg i.v.) was 12.2 min, the blood pressure after ([5]; 1.00 mg/kg i.v.) was 70.0 mm.Hg and the “blood pressure Δ” value ([5]; 1.00 mg/kg i.v.) was -39.7 mm.Hg. For the same molecule, the “dp/dt (inotropism) after” value ([5]; 1.00 mg/kg i.v.) was 5533 mm.Hg/sec, the “dp/dt (inotropism) Δ” value ([5]; 1.00 mg/kg i.v.) was -1534 mm.Hg/sec and the “dp/dt WD” value ([5]; 1.00 mg/kg i.v.) was 23.0 min. For the same molecule, the heart frequency after ([5]; 1.00 mg/kg i.v.) was 227.0 min⁻¹, the “heart frequency Δ” value ([5]; 1.00 mg/kg i.v.) was -1.0 min⁻¹ and the “blood pressure WD” value ([5]; 2.50 mg/kg i.v.) was > 10 min. The blood pressure after ([5]; 2.50 mg/kg i.v.) was 53.2 mm.Hg, the “blood pressure Δ” value ([5]; 2.50 mg/kg i.v.) was -50.3 mm.Hg and the “dp/dt (inotropism) after” value ([5]; 2.50 mg/kg i.v.) was 3600 mm.Hg/sec. The “dp/dt (inotropism) Δ” value ([5]; 2.50 mg/kg i.v.) was -3067 mm.Hg/sec, the “dp/dt WD” value ([5]; 2.50 mg/kg i.v.) was > 10 min and the heart frequency after ([5]; 2.50 mg/kg i.v.) was 206.3 min⁻¹. For the same molecule, the “heart frequency Δ” value ([5]; 2.50 mg/kg i.v.) was -22.0 min⁻¹.
With O=[N+]([O-])O[C@H]1CO[C@H]2[C@@H]1OC[C@@H]2N1CCOCC1 [16 b] the LD50 at 24 h [1] was > 200 mg/kg, the Frequency of death ([2]; 200 mg/kg i.v.) was 0/3 and the activation at 25 µg/mL [3] was 14.7%. For the same molecule, the blood pressure after ([4]; 0.25 mg/kg i.v.) was 59.50 ± 5.63 mm.Hg, the “blood pressure Δ” value ([4]; 0.25 mg/kg i.v.) was -9.25 mm.Hg and the blood pressure before ([4]; 0.25 mg/kg i.v.) was 68.75 ± 3.07 mm.Hg. For the same molecule, the blood pressure after ([4]; 1.00 mg/kg i.v.) was 48.25 ± 4.80 mm.Hg, the “blood pressure Δ” value ([4]; 1.00 mg/kg i.v.) was -19.75 mm.Hg and the blood pressure after ([4]; 2.50 mg/kg i.v.) was 43.25 ± 4.91 mm.Hg. The “blood pressure Δ” value ([4]; 2.50 mg/kg i.v.) was -23.50 mm.Hg.
